{"source": "patent US20260335341A1", "about": "“METHODS FOR TREATING PAEDIATRIC NEUROLOGICAL DISORDERS” (Neurotech International Limited, priority 2022, published 2026)", "key": {"[1]": {"test_system": "excitotoxic cell injury paradigm", "test": "Cell death in an excitotoxic cell injury paradigm", "format": "cell-based, human", "description": "Neuronal viability was quantified using MTT [3-(4,5-dimethylthiazol-2-yl-)-2,5-diphenyl-2H-tetrazolium bromide; Sigma]. […] Cellular excitotoxicity was achieved via glutamate activation (3 mM)."}, "COX-2 [2]": {"test_system": "COX-2", "test": "COX-2 expression, immunohistochemistry, human derived microglial cells (Example 4)", "format": "cell-based", "conditions": "2 μg/ml, N = 9", "description": "(§1) Immunohistochemistry (Protein Level) Assay: Cells were fixed for 10 min with 4% paraformaldehyde (PFA) in PBS. After 3×5 minutes washing with PBS, cells were incubated with primary antibodies (anti-COX2) 1:1000 overnight at 4 °C, and after 3×5 minutes washing in PBS, cells were then incubated in appropriate fluorescent secondary antibody 1:250 (Invitrogen) for 2 hours at room temperature. After a final wash, as previous, cells nuclei were sained with DAPI in the mounting media. Photomicrographs were taken of the cells in three fields of view per well from duplicate wells and analysed using Fiji for area coverage of each marker.\n(§2) The tubes are then placed in a sonication bath for 10 mins at 35-40 C. Upon completion of the sonication samples are then placed in a tray shaker (200 rpm) for 30 minutes at room temperature. Once completed the samples are then centrifuged at 4400 rpm for 5 minutes. The supernatant is collected for testing and development.\n(§3) For the CBD sample, a pure standard (in powder form) was used. CBD 98% isolate was purchased as a reference standard from LGC Standards (London UK) (CAS No. 13956-29-1). The CBD standard reference was prepared at concentration of 1 mg/ml (in acetonitrile). CBD dilutions were made in acetonitrile as follows: 2 μg/ml; 6 μg/ml; and 0.1 μg/ml."}, "IL-12": {"test_system": "IL-12", "test": "IL-12 level in microglial media, multiplex cytokine assay (Example 4)", "format": "cell-based, human", "conditions": "2 μg/ml; interleukin and interferon activation; control 99.91", "description": "(§4) Multiplex Cytokine/Chemokine Assay: Microglia media harvested following treatment initiation was centrifuged briefly to remove particulates (300 g for 10 min). Cytokine and chemokine levels in the microglial media were measured using a Bio-Plex 200 with a 96-well magnetic plate assay according to the manufacturer's instructions (Bio-Rad). Cytokines and chemokines measured included IL-1α, IL-1β, IL-2, IL-6, IL-10, IL-12 (p70), IL-13, G-CSF, GM-CSF, IFNγ, TNFα, CXCL1 (KC), CCL2 (MCP-1), and CCL5 (RANTES). All samples were run in duplicate and data were analyzed with the Bio-Plex Manager software.\nas §2, §3"}, "TNF-alpha": {"test_system": "TNF-alpha", "test": "TNF-alpha level in microglial media, multiplex cytokine assay (Example 4)", "format": "cell-based, human", "conditions": "2 μg/ml; interleukin and interferon activation", "description": "as §4, §2, §3"}, "COX-2 [3]": {"test_system": "COX-2", "test": "COX-2 activity, immunohistochemistry, human derived microglial cells, diclofenac combination (Example 6)", "format": "cell-based", "parameters": "unit not given here", "conditions": "2 μg/ml each, I&I inflammation activation, N = 9", "description": "as §1, with “Human derived microglial cells” for “Immunohistochemistry (Protein Level) Assay: Cells”\nCOX-2 is measured using the immunohistochemistry assay—as described above. […] In the treatment groups, these cells are also treated with various treatments and COX-2 expression is then assessed following these treatments (1 hr after treatment).\nas §2, with “In this example, ethanol extraction was used. […] The tubes” for “The tubes”\nFor the CBD sample, a pure standard (in powder form) was used. CBD 98% isolate was purchased as a reference standard from LGC Standards (London UK) (CAS No. 13956-29-1). […]"}, "human microglial cells": {"test_system": "human microglial cells", "test": "DAPI cell viability stain (Example 4)", "format": "cell-based"}, "[4]": {"test_system": "cannabinoid receptor type 1 (CB1)", "conditions": "cited from earlier work"}, "[5]": {"test_system": "cannabinoid receptor type 2 (CB2)", "conditions": "cited from earlier work"}, "neutrophil": {"test_system": "neutrophil", "conditions": "cited from earlier work"}, "[6]": {"conditions": "animals; cited from earlier work"}, "[7]": {"test": "Stability of NTI164 oil formulation at room temperature (UPLC)"}, "TNF-a [8]": {"test_system": "TNF-a", "test": "TNF-a release from BV2 microglia, celecoxib combination (Example 7)", "format": "cell-based", "conditions": "Celebrex 5 uM; NTI164 7.5 uM (as headed); combination Celebrex 5 uM + NTI164 7.5 ug/ml; activated control 45", "description": "(§5) The immortalized microglia cell line, BV2, was purchased from the American Tissue Culture Collection. BV2 were cultured in RPMI media containing gentamycin and supplemented with 10% fetal bovine serum (FBS) for expansion and 5% FBS when plated for experiments. All cells were from between passage numbers 39 and 45. Cells were plated at […] and treated 24 hours after plating with phosphate buffered saline (PBS, as a control) or interleurkin-1B+interferon-γ (IL-1B+IFNγ, to induce inflammation).\nas §4, with “Microglia” for “Multiplex Cytokine/Chemokine Assay: Microglia”, “that” for “and data”, “averaged for analysis, at least three samples per group were run.” for “analyzed with the Bio-Plex Manager software.”"}, "IL-6 [9]": {"test_system": "IL-6", "test": "IL-6 release from BV2 microglia, celecoxib combination (Example 7)", "format": "cell-based", "conditions": "Celebrex 5 uM; NTI164 7.5 uM (as headed); combination Celebrex 5 uM + NTI164 7.5 ug/ml; activated control 366.33", "description": "as §5\nas §4, with “Microglia” for “Multiplex Cytokine/Chemokine Assay: Microglia”, “that” for “and data”, “averaged for analysis, at least three samples per group were run.” for “analyzed with the Bio-Plex Manager software.”"}, "IL-1a [10]": {"test_system": "IL-1a", "test": "IL-1a release from BV2 microglia, celecoxib combination (Example 7)", "format": "cell-based", "conditions": "Celebrex 5 uM; NTI164 7.5 uM (as headed); combination Celebrex 5 uM + NTI164 7.5 ug/ml; activated control 154.83", "description": "as §5\nas §4, with “Microglia” for “Multiplex Cytokine/Chemokine Assay: Microglia”, “that” for “and data”, “averaged for analysis, at least three samples per group were run.” for “analyzed with the Bio-Plex Manager software.”"}, "GM-CSF [11]": {"test_system": "GM-CSF", "test": "GM-CSF release from BV2 microglia, celecoxib combination (Example 7)", "format": "cell-based", "conditions": "Celebrex 5 uM; NTI164 7.5 uM (as headed); combination Celebrex 5 uM + NTI164 7.5 ug/ml; activated control 768.13", "description": "as §5\nas §4, with “Microglia” for “Multiplex Cytokine/Chemokine Assay: Microglia”, “that” for “and data”, “averaged for analysis, at least three samples per group were run.” for “analyzed with the Bio-Plex Manager software.”"}, "TNF-a [12]": {"test_system": "TNF-a", "test": "TNF-a, prednisone combination (Example 8)", "format": "cell-based", "conditions": "PDN 5 uM; NTI164 7.5 ug/ml; combination PDN 5 uM + NTI164 7.5 ug/ml; activated control 45", "description": "(§6) Student's t-test was used for statistical analysis."}, "IL-6 [13]": {"test_system": "IL-6", "test": "IL-6, prednisone combination (Example 8)", "format": "cell-based", "conditions": "PDN 5 uM; NTI164 7.5 ug/ml; combination PDN 5 uM + NTI164 7.5 ug/ml; activated control 366.33", "description": "as §6"}, "IL-1a [14]": {"test_system": "IL-1a", "test": "IL-1a, prednisone combination (Example 8)", "format": "cell-based", "conditions": "PDN 5 uM; NTI164 7.5 ug/ml; combination PDN 5 uM + NTI164 7.5 ug/ml; activated control 154.83", "description": "as §6"}, "GM-CSF [15]": {"test_system": "GM-CSF", "test": "GM-CSF, prednisone combination (Example 8)", "format": "cell-based", "conditions": "PDN 5 uM; NTI164 7.5 ug/ml; combination PDN 5 uM + NTI164 7.5 ug/ml; activated control 768.13", "description": "as §6"}, "[16]": {"conditions": "in vitro, at low concentrations"}}, "note": "Where “and” joins values, the source holds several entries; their conditions need not be identical. Identical values can stand only once. Like-named read-outs stand apart in the source and are kept apart here.", "data": [{"smiles": "C=C(C)[C@@H]1CCC(C)=C[C@H]1c1c(O)cc(CCCCC)cc1O", "note": "[CBD, Cannabidiol]", "values": [{"measurement": "Toxicity / effect on cell number and cell viability", "setting": "[1]", "result": "toxic in this paradigm"}, {"measurement": "COX-2 expression, average +/- SEM, exposure after inflammatory insult", "setting": "COX-2 [2]; exposure 1 hour after inflammatory insult (interleukin and interferon gamma), control 104.26", "result": "76.32 +/− 7.95 (SEM)"}, {"measurement": "COX-2 expression, average +/- SEM, exposure before inflammatory insult", "setting": "COX-2 [2]; exposure 1 hour prior to inflammatory insult (interleukin and interferon gamma), control 94.47", "result": "84.82 +/− 7.65 (SEM)"}, {"measurement": "IL-12, average +/- SD", "setting": "IL-12", "result": "84.40 +/− 6.54"}, {"measurement": "TNF-alpha, average +/- SD", "setting": "TNF-alpha", "result": "71.13 +/− 12.81"}, {"measurement": "COX-2 activity, individual replicate", "setting": "COX-2 [3]; 1 hr after treatment", "result": "42.4 and 44.92 and 109.99 and 136.99 and 117.84 and 43.14 and 77.81 and 59.02 and 73.8"}, {"measurement": "COX-2 activity, mean", "setting": "COX-2 [3]; activated control mean 101.39", "result": 78.43}, {"measurement": "Cell death by DAPI cell viability stain", "setting": "human microglial cells", "result": "DAPI cell viability stain: No cell death was detected and assessed as per the DAPI cell staining method."}, {"measurement": "Allosteric modulation of CB1", "setting": "[4]", "result": "negative allosteric modulator of CB1"}, {"measurement": "Affinity for CB1", "setting": "[4]; compared to Δ9-THC", "result": "low affinity"}, {"measurement": "CB1 antagonistic effect", "setting": "[4]; [16]", "result": "weak CB1 and CB2 antagonistic effect"}, {"measurement": "Allosteric modulation of CB1", "setting": "[4]; listed as Cannabidiol", "result": "negative allosteric modulator of the cannabinoid CB1 receptor"}, {"measurement": "Affinity for CB2", "setting": "[5]; compared to Δ9-THC", "result": "low affinity"}, {"measurement": "CB2 antagonistic effect", "setting": "[5]; [16]", "result": "weak CB1 and CB2 antagonistic effect"}, {"measurement": "Neutrophil chemotaxis and proliferation", "setting": "neutrophil", "result": "inhibit neutrophil chemotaxis and proliferation"}, {"measurement": "Oral bioavailability", "setting": "[6]", "result": "13-19%"}, {"measurement": "Cannabinoid content of NTI164, Day 14", "setting": "[7]", "result": 0.56, "unit": "mg/mL"}, {"measurement": "Cannabinoid content of NTI164, Day 0", "setting": "[7]; NTI164 oil, room temperature, Day 0", "result": 0.46, "unit": "mg/mL"}, {"measurement": "Cannabinoid content of NTI164, Day 2", "setting": "[7]; NTI164 oil, room temperature, Day 2", "result": 0.56, "unit": "mg/mL"}, {"measurement": "Cannabinoid content of NTI164, Day 7", "setting": "[7]; NTI164 oil, room temperature, Day 7", "result": 0.53, "unit": "mg/mL"}, {"measurement": "Cannabinoid content of NTI164, Day 28", "setting": "[7]; NTI164 oil, room temperature, Day 28", "result": 0.54, "unit": "mg/mL"}, {"measurement": "Cannabinoid content of NTI164, Week 5", "setting": "[7]; NTI164 oil, room temperature, Week 5", "result": 0.60, "unit": "mg/mL"}, {"measurement": "Cannabinoid content of NTI164, Week 6", "setting": "[7]; NTI164 oil, room temperature, Week 6", "result": 0.51, "unit": "mg/mL"}, {"measurement": "Cannabinoid content of NTI164, Week 32", "setting": "[7]; NTI164 oil, room temperature, Week 32", "result": 0.48, "unit": "mg/mL"}]}, {"smiles": "Cc1ccc(-c2cc(C(F)(F)F)nn2-c2ccc(S(N)(=O)=O)cc2)cc1", "note": "[Celebrex, celecoxib]", "values": [{"measurement": "TNF-a", "setting": "TNF-a [8]", "result": 30.17}, {"measurement": "IL-6", "setting": "IL-6 [9]", "result": 128.50}, {"measurement": "IL-1a", "setting": "IL-1a [10]", "result": 112.5}, {"measurement": "GM-CSF", "setting": "GM-CSF [11]", "result": 511.97}]}, {"smiles": "C[C@]12C=CC(=O)C=C1CC[C@@H]1[C@@H]2C(=O)C[C@@]2(C)[C@H]1CC[C@]2(O)C(=O)CO", "note": "[PDN, Prednisone]", "values": [{"measurement": "TNF-a", "setting": "TNF-a [12]", "result": 30.17}, {"measurement": "IL-6", "setting": "IL-6 [13]", "result": 228.50}, {"measurement": "IL-1a", "setting": "IL-1a [14]", "result": 144.5}, {"measurement": "GM-CSF", "setting": "GM-CSF [15]", "result": 611.97}]}]}
